Reference: PubChem BioAssay (NCI)
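Five compound concentrations were applied to cells in 96-well plates for 48 hours; endpoints were derived by simple linear interpolation of the resulting dose-response curve. At the GI50, growth is halved. The concentration for full growth arrest is given as TGI.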 Where a SMILES comes first, the peptide text is derived from it. Bridges are numbered along the chain shown (N, C = ends). Roman numbers before positions name the chains, in order. [ ]: non-standard residue; d: D form. The star is where a group is joined. Heptadecanoyl = CCCCCCCCCCCCCCCCC(=O)*; Phg = N[CH](C(=O)O)c1ccccc1

Key:
Test in all cases: NCI-60 cell line screen, 48 h
CCRF-CEM leukemia = tested on: CCRF-CEM leukemia
HCT-116 colon = tested on: HCT-116 colon
HL-60(TB) leukemia = tested on: HL-60(TB) leukemia
HOP-92 NSCLC = tested on: HOP-92 NSCLC
HT29 colon = tested on: HT29 colon
IGROV1 ovarian = tested on: IGROV1 ovarian
SK-MEL-28 melanoma = tested on: SK-MEL-28 melanoma
SNB-75 CNS = tested on: SNB-75 CNS
MDA-MB-435 = tested on: MDA-MB-435
T-47D breast = tested on: T-47D breast

SMILES | TGI (CCRF-CEM leukemia) [µM] | TGI (HCT-116 colon) [µM] | TGI (HL-60(TB) leukemia) [µM] | TGI (HOP-92 NSCLC) [µM] | TGI (HT29 colon) [µM] | TGI (IGROV1 ovarian) [µM] | TGI (SK-MEL-28 melanoma) [µM] | TGI (SNB-75 CNS) [µM] | GI50 (CCRF-CEM leukemia) [µM] | GI50 (HCT-116 colon) [µM] | GI50 (HL-60(TB) leukemia) [µM] | GI50 (HOP-92 NSCLC) [µM] | GI50 (HT29 colon) [µM] | GI50 (IGROV1 ovarian) [µM] | GI50 (MDA-MB-435) [µM] | TGI (MDA-MB-435) [µM] | GI50 (SK-MEL-28 melanoma) [µM] | GI50 (SNB-75 CNS) [µM] | GI50 (T-47D breast) [µM] | TGI (T-47D breast) [µM]
CCOC(=O)c1cc(Cl)ccc1OC(N)=O | > 100 | > 100 | > 100 | > 100 | > 100 | > 100 | > 100 | > 100 | – | – | – | – | – | – | – | – | – | – | – | –
CCCCCCCCCCCCCCCCC(=O)N1CCCC1C(=O)NCC(=O)NC(C(=O)N1CCCC1C(=O)NC(CO)C(=O)NC(Cc1ccc(O)cc1)C(=O)NC(CCCCNC(=O)C1CCCN1C(=O)C(CCCCN)NC(=O)C(CCCCN)NC(=O)C(CCCCN)NC(=O)C(CCCNC(=N)N)NC(=O)C(CCCCN)NC(=O)C(N)C(C)C)C(=O)NC(CC(C)C)C(=O)NC(CCCNC(=N)N)C(=O)N1CCCC1C(=O)NCC(N)=O)c1ccccc1 (configuration not stated) (I: Heptadecanoyl-PG[Phg]PSYKLRPG-NH2 / II: H-VKRKKKP; amide I:7-II:C; configuration not given here) | 31.5 | 43.8 | > 100 | 83 | > 100 | 75.7 | > 100 | > 100 | 12 | 13 | 21.3 | 30.4 | 29.6 | 24.8 | 18.9 | 83.9 | 19.5 | 54.2 | 5.38 | 70.7
Nc1nc(Cl)nc2c1ncn2C1CCC(CO)O1 (configuration not stated) | > 100 | > 100 | – | > 100 | > 100 | > 100 | > 100 | > 100 | – | – | – | – | – | – | – | > 100 | – | – | – | > 100
N#CC(C#N)=Cc1ccc(-c2ccc(-c3nc4ccccc4s3)cc2)s1 | 62.9 | 31.1 | – | – | > 100 | 27.1 | > 100 | > 100 | 21 | 12.3 | – | – | 29.7 | 4.62 | 25.5 | 64.5 | 37.5 | 37.5 | 18.2 | 73.8
C(=N/Nc1ccccn1)/c1cccnc1 | > 100 | > 100 | > 100 | > 100 | > 100 | > 100 | > 100 | > 100 | – | – | – | – | – | – | – | > 100 | – | – | – | > 100
CN(C)C(=S)SCc1ccccc1 | > 100 | > 100 | > 100 | > 100 | > 100 | > 100 | > 100 | 70.3 | – | – | – | – | – | – | – | > 100 | – | – | – | 60.6
C/C(=C\c1ccc2c(c1)OCO2)[N+](=O)[O-] | > 100 | > 100 | 5.73 | 5.53 | 7.21 | 5.89 | 6.02 | 88.2 | – | – | – | – | – | – | – | 5.34 | – | – | – | 5.14
Cc1cccc(C(O)c2ccccn2)c1O (configuration not stated) | > 100 | > 100 | > 100 | – | > 100 | > 100 | > 100 | > 100 | – | – | – | – | – | – | – | > 100 | – | – | – | > 100
